Test results: patent publication EP0995441A2, “Combination of compounds for treating erectile dysfunctions” (priority 1998, dated 2000)
Several values for one entry are separate records, joined by “and”; a condition that tells them apart may be missing. Identical values can stand only once.

Tests used:
[1] = system: Patienten mit Sildenafilresistenz; test: Clinical study: erection response after oral drug combination in patients not responding to sildenafil alone; format: in vivo
Description: Überraschenderweise erwies sich in klinischen Studien, daß Patienten mit erektiler Impotenz (ED) nach Therapieversagen unter der Behandlung mit Sildenafil allein (ED-SN negativ nach Sildenafil-Therapie in einer Menge von 100 mg Sildenafil) mit der erfindungsgemäßen Medikamentenkombination erfolgreich therapierbar waren.
Tabelle 1 zeigt die Wirkung einer Medikamentenkombination, bestehend aus Sildenafil und Midodrin der chemischen Strukturformel: [drawing 3] wobei die Sildenafil-Mengen von 10 bis 100 mg und die Midodrin-Mengen von 5 bis 25 mg variiert wurden.
Bei 10 Patienten mit ED-SN im Alter zwischen 45 bis 65 Jahren ohne Nitropräparate und koronare Herzkrankheiten lag beispielsweise die Ansprechrate der Medikamentenkombination, bestehend aus 50 mg Sildenafil und 25 mg Midodrin bei 7 von 10 Patienten, wenn die Medikamentenkombination in Form von Zwei-Kompartment-Dragees gegeben wurde.
Bei Gabe der Medikamentenkombination in einer üblichen Retard-Form gelang es, die Ansprechrate auf 8 von 10 Patienten zu erhöhen. Tabelle 1

[2] = system: Sphincter internus und Sphincter externus; test: Endoscopic observation and fibre-optic pressure measurement in the prostatic urethra after injection into the corpora cavernosa; format: in vivo, Patienten mit Priapismus; details: Vergleichsgruppe with clinically sufficient erection after 100 mg Sildenafil
Text: Diese pharmakologischen Veränderungen sind ein indirekter Hinweis auf die alterierte Gefäßabflußsituation im Funktionsbereich der angrenzenden Organe an die Corpora cavernosa.

[3] = Sildenafil Monodosis 100 mg, control of the Retardform group

CCCc1nn(C)c2c(=O)[nH]c(-c3cc(S(=O)(=O)N4CCN(C)CC4)ccc3OCC)nc12 [Sildenafil]
Kontrolle, 1. REAKTION (INITIALPHASE): patients reacting out of 10 ([1]; Sildenafil Monodosis 10 mg): 0/10
Kontrolle, 50% REAKTION: patients reacting out of 10 ([1]; Sildenafil Monodosis 10 mg): 0/10
Kontrolle, MAXIMALE EREKTION: patients reacting out of 10 ([1]; Sildenafil Monodosis 10 mg): 0/10
Kontrolle, 1. REAKTION (INITIALPHASE): patients reacting out of 10 ([1]; Sildenafil Monodosis 50 mg): 0/10 and 1/10
Kontrolle, 50% REAKTION: patients reacting out of 10 ([1]; Sildenafil Monodosis 50 mg): 0/10
Kontrolle, MAXIMALE EREKTION: patients reacting out of 10 ([1]; Sildenafil Monodosis 50 mg): 0/10
Kontrolle, 1. REAKTION (INITIALPHASE): patients reacting out of 10 ([1]; Sildenafil Monodosis 100 mg): 1/10 and 0/10
Kontrolle, 50% REAKTION: patients reacting out of 10 ([1]; Sildenafil Monodosis 100 mg): 1/10 and 0/10
Kontrolle, MAXIMALE EREKTION: patients reacting out of 10 ([1]; Sildenafil Monodosis 100 mg): 0/10
Kontrolle, 50% REAKTION: time [1, 3]: 105 min
Kontrolle, MAXIMALE EREKTION: time [1, 3]: 120 min
Druckwerte im Bereich des Sphincter internus sowie des Sphincter externus [2]: keine vergleichbaren hohen Druckwerte
